Measured values: patent US11427553B2, “Dihydrooxadiazinones” (Bayer Aktiengesellschaft, priority 2017, dated 2022)

How the values were obtained:
human full length PDE3A = human full length PDE3A (Homo sapiens (Human), UniProt Q14432); experiment: Assay 4 PDE3A enzyme inhibition (3H-cAMP SPA); format: biochemical; conditions: Sf9 cell extract
In short: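 Hydrolysis of [8-3H]cAMP by Sf9-expressed full-length PDE3A was measured by scintillation proximity, with enzyme diluted to keep kinetics linear and substrate consumption below 70%. Incubation ran 60 min at room temperature at pH 7.5.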

human full length PDE3B = human full length PDE3B (Homo sapiens (Human), UniProt Q13370); experiment: Assay 5 PDE3B enzyme inhibition (3H-cAMP SPA); format: biochemical; conditions: Sf9 cell extract
In short: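 Hydrolysis of tritiated cAMP by Sf9-expressed full-length human PDE3B proceeded 60 min at room temperature in Tris buffer pH 7.5 containing Mg2+, EDTA and BSA, with enzyme dilution keeping substrate consumption below 70%. IC50 derived from percent activity versus log compound concentration.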

SK-MEL-3 cells = experiment: Assay 1 cell proliferation measurement (CTG, 72 h), SK-MEL-3; format: cell-based, human; conditions: Homo sapiens, SK-MEL3; Assay 1, 72 h, Cell Titer Glo; read-out: SK-MEL-3 IC50 [nM] (melanoma)
In short: (§1)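 Growth inhibition relative to a 0 h baseline plate and 0.3% DMSO control, with IC50 fitted by 4-parameter curve. Compound exposure lasted 72 h at 37 °C across a 2.5-fold, 10-step series starting generally at 100 nM final.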

HeLa cells = experiment: Assay 1 cell proliferation measurement (CTG, 72 h), HeLa; format: cell-based, human; conditions: Homo sapiens, HeLa; Assay 1, 72 h, Cell Titer Glo; read-out: HeLa IC50 [nM] (Cervical cancer)
In short: as §1

human full length PDE3A, sequence (Q14432 whole entry): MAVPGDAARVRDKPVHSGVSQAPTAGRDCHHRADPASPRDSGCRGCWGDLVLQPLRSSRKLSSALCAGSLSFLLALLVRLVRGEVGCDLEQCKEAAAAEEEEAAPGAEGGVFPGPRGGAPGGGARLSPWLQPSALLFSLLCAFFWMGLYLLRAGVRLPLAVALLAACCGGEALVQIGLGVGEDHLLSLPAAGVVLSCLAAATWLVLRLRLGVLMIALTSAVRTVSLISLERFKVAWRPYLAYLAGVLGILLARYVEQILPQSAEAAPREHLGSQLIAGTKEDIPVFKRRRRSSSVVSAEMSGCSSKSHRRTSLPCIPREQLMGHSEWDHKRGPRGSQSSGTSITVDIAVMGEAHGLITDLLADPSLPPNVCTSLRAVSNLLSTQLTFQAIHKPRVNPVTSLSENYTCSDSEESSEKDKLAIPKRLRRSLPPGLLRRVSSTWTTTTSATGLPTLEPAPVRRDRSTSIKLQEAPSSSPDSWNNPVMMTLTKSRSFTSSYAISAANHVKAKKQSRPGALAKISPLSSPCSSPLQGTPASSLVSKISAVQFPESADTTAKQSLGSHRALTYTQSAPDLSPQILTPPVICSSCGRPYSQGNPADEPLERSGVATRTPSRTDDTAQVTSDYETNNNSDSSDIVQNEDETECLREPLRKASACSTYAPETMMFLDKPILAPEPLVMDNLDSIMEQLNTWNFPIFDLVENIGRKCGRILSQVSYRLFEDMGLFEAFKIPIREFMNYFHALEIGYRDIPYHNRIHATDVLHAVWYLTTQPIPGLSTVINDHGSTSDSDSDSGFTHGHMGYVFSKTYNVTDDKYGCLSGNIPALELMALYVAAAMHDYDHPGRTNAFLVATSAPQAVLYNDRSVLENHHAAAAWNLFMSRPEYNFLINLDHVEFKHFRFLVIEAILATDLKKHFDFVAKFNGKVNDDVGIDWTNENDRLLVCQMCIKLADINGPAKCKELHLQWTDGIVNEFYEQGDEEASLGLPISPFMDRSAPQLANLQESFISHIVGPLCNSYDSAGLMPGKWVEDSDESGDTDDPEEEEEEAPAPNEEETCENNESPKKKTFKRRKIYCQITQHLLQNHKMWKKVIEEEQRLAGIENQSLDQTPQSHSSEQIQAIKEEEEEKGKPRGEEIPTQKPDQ
human full length PDE3B, sequence (Q13370 whole entry): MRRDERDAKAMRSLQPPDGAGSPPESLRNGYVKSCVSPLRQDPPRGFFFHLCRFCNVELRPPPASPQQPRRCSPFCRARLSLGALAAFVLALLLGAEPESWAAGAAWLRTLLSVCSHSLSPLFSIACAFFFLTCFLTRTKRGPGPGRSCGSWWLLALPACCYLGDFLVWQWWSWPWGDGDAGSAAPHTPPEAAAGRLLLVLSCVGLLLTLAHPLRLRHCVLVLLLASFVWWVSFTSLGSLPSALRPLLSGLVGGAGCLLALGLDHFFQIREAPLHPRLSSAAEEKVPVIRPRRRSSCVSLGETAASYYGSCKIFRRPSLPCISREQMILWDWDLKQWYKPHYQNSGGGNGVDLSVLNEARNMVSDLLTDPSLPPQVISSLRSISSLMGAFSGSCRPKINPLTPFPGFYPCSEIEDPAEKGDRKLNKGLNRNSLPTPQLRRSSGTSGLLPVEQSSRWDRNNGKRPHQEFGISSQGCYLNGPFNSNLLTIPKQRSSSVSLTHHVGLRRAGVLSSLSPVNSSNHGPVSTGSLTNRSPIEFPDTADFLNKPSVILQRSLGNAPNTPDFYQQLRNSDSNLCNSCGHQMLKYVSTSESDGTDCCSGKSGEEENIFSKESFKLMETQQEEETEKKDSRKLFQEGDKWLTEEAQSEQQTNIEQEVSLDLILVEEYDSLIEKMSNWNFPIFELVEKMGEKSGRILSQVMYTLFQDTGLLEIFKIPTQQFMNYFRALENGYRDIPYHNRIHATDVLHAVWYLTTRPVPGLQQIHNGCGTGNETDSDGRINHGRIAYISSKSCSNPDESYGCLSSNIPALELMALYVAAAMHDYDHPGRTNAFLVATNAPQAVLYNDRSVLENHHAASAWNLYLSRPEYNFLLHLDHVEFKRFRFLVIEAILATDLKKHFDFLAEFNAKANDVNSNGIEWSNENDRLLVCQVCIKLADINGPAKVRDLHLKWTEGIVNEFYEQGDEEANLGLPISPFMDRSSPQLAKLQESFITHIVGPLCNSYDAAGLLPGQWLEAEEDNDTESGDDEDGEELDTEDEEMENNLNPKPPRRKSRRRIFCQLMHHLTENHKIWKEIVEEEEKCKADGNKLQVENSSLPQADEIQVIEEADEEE

Compound | IC50 (human full length PDE3A) [nM] | IC50 (human full length PDE3B) [nM] | IC50 (SK-MEL-3 cells) [nM] | IC50 (HeLa cells) [nM]
O=C1NN=C(c2ccc(NC[C@H](O)C(F)(F)F)c(C(F)(F)F)c2)CO1 [Example 209, 5-[4-{[3,3,3-Trifluoro-(2S)-hydroxypropyl]amino}-3-(trifluoromethyl)phenyl]-3,6-dihydro-2H-1,3,4-oxadiazin-2-one] | 275 | 533 | 7 | 7
Cc1cc(C2=NNC(=O)OC2)ccc1C1=CCOCC1 [Example 10, 5-[4-(3,6-Dihydro-2H-pyran-4-yl)-3-methylphenyl]-3,6-dihydro-2H-1,3,4-oxadiazin-2-one] | 220 | 230 | 43 | 15
O=C1NN=C(c2ccc(C3=CCOC3)c(C(F)(F)F)c2)CO1 [Example 149, 5-[4-(2,5-Dihydrofuran-3-yl)-3-(trifluoromethyl)phenyl]-3,6-dihydro-2H-1,3,4-oxadiazin-2-one] | 163 | 132 | 4 | 2
O=C1NN=C(c2ccc(N3CCC(F)(F)C3)c(F)c2)CO1 [Example 26, 5-[4-(3,3-Difluoropyrrolidin-1-yl)-3-fluorophenyl]-3,6-dihydro-2H-1,3,4-oxadiazin-2-one] | 700 | 270 | 29 | 9
CCN(C)c1ccc(C2=NNC(=O)OC2)cc1C(F)(F)F [Example 223, 5-{4-[Ethyl(methyl)amino]-3-(trifluoromethyl)phenyl}-3,6-dihydro-2H-1,3,4-oxadiazin-2-one] | 140 | 100 | 9 | 6
Cc1cnccc1-c1ccc(C2=NNC(=O)O[C@H]2C)cc1C(F)(F)F [Example 183, (6S)-6-Methyl-5-[4-(3-methylpyridin-4-yl)-3-(trifluoromethyl)phenyl]-3,6-dihydro-2H-1,3,4-oxadiazin-2-one] | 200 | 170 | 22 | 15
COc1ccc(-c2ccc(C3=NNC(=O)O[C@H]3C)cc2C(F)(F)F)cn1 [Example 187, (6S)-5-[4-(6-Methoxypyridin-3-yl)-3-(trifluoromethyl)phenyl]-6-methyl-3,6-dihydro-2H-1,3,4-oxadiazin-2-one] | 81 | 100 | 40 | 23
O=C1NN=C(c2ccc(-c3csc(C(F)(F)F)c3)c(C(F)(F)F)c2)CO1 [Example 145, 5-{3-(Trifluoromethyl)-4-[5-(trifluoromethyl)thiophen-3-yl]phenyl}-3,6-dihydro-2H-1,3,4-oxadiazin-2-one] | 240 | 410 | 47 | 27
C[C@@H]1OC(=O)NN=C1c1ccc(-c2ccccc2F)c(C(F)(F)F)c1 [Example 179, (6S)-5-[2′-Fluoro-2-(trifluoromethyl)[1,1′-biphenyl]-4-yl]-6-methyl-3,6-dihydro-2H-1,3,4-oxadiazin-2-one] | 140 | 110 | 15 | 8
CC(C)(O)CNc1ccc(C2=NNC(=O)OC2)cc1C(F)(F)F [Example 210, 5-{4-[(2-Hydroxy-2-methylpropyl)amino]-3-(trifluoromethyl)phenyl}-3,6-dihydro-2H-1,3,4-oxadiazin-2-one] | 140 | 363 | 8 | 6
Cc1ccc(-c2ccc(C3=NNC(=O)O[C@H]3C)cc2C(F)(F)F)c(F)c1 [Example 168, (6S)-5-[2′-Fluoro-4′-methyl-2-(trifluoromethyl)[1,1′-biphenyl]-4-yl]-6-methyl-3,6-dihydro-2H-1,3,4-oxadiazin-2-one] | 170 | 220 | 25 | 14
NC1CCC(Nc2ccc(C3=NNC(=O)OC3)cc2C(F)(F)F)CC1 (mixture of isomers) [Example 320, 5-[4-{[4-aminocyclohexyl]amino}-3-(trifluoromethyl)phenyl]-3,6-dihydro-2H-1,3,4-oxadiazin-2-one (mixture of stereoisomers)] | 76 | 220 | > 100 | > 100
Cc1ccc(-c2ccc(C3=NNC(=O)OC3)cc2OC(F)(F)F)cn1 [Example 70, 5-[4-(6-Methylpyridin-3-yl)-3-(trifluoromethoxy)phenyl]-3,6-dihydro-2H-1,3,4-oxadiazin-2-one] | 75 | 170 | 29 | 15
CC(C)(O)c1ccc(C2=NNC(=O)OC2)cc1C(F)(F)F [Example 278, 5-[4-(2-Hydroxypropan-2-yl)-3-(trifluoromethyl)phenyl]-3,6-dihydro-2H-1,3,4-oxadiazin-2-one] | > 1000 | > 1000 | 80 | 58
C[C@@H](O)CNc1ccc(C2=NNC(=O)OC2)cc1C(F)(F)F [Example 216, 5-[4-{[(2R)-2-Hydroxypropyl]amino}-3-(trifluoromethyl)phenyl]-3,6-dihydro-2H-1,3,4-oxadiazin-2-one] | 103 | 167 | 7 | 6
C=C(C)c1ccc(C2=NNC(=O)OC2)cc1C(F)(F)F [Example 147, 5-[4-(Prop-1-en-2-yl)-3-(trifluoromethyl)phenyl]-3,6-dihydro-2H-1,3,4-oxadiazin-2-one] | 140 | 310 | 39 | 22
Nc1ccc(-c2ccc(C3=NNC(=O)OC3)cc2C(F)(F)F)cc1F [Example 39, 5-[4′-Amino-3′-fluoro-2-(trifluoromethyl)biphenyl-4-yl]-3,6-dihydro-2H-1,3,4-oxadiazin-2-one] | 72 | 75 | 6 | 4
Cc1ncc(-c2ccc(C3=NNC(=O)OC3)cc2C(F)(F)F)cc1F [Example 48, 5-[4-(5-Fluoro-6-methylpyridin-3-yl)-3-(trifluoromethyl)phenyl]-3,6-dihydro-2H-1,3,4-oxadiazin-2-one] | 240 | 240 | 16 | 8

Stronger by IC50 (human full length PDE3A), values ahead:

IC50 (human full length PDE3A) [nM] | IC50 (human full length PDE3B) [nM] | IC50 (SK-MEL-3 cells) [nM] | IC50 (HeLa cells) [nM] | Compound
68 | 85 | 17 | 14 | Nc1cccc(-c2ccc(C3=NNC(=O)OC3)cc2F)c1 [Example 91, 5-[4-(3-Aminophenyl)-3-fluoro-phenyl]-3,6-dihydro-1,3,4-oxadiazin-2-one]
26 | 22 | 13 | 6 | O=C1NN=C(c2ccc(-c3cccnc3)c(F)c2)CO1 [Example 108, 5-[3-Fluoro-4-(pyridin-3-yl)phenyl]-3,6-dihydro-2H-1,3,4-oxadiazin-2-one]
53 | 33 | 2 | 2 | O=C1NN=C(c2ccc(-c3ccc4cn[nH]c4c3)c(C(F)(F)F)c2)CO1 [Example 47, 5-[4-(1H-Indazol-6-yl)-3-(trifluoromethyl)phenyl]-3,6-dihydro-2H-1,3,4-oxadiazin-2-one]
31 | 31 | 21 | 10 | Nc1cc(-c2ccc(C3=NNC(=O)OC3)cc2C(F)(F)F)ccc1Cl [Example 41, 5-[3′-Amino-4′-chloro-2-(trifluoromethyl)biphenyl-4-yl]-3,6-dihydro-2H-1,3,4-oxadiazin-2-one]
36 | 13 | 7 | 5 | CC1OC(=O)NN=C1c1ccc(N2CCOCC2)c(F)c1 (racemic) [Example 119, (rac)-5-(3-Fluoro-4-morpholinophenyl)-6-methyl-3,6-dihydro-2H-1,3,4-oxadiazin-2-one]
29 | 71 | 25 | 12 | Cc1cc(-c2ccc(C3=NNC(=O)OC3)cc2F)ccn1 [Example 79, 5-[3-Fluoro-4-(2-methylpyridin-4-yl)phenyl]-3,6-dihydro-2H-1,3,4-oxadiazin-2-one]
49 | 48 | 6 | 4 | C[C@@H]1OC(=O)NN=C1c1ccc(-c2ccc3cc[nH]c3c2)c(C(F)(F)F)c1 [Example 185, (6S)-5-[4-(1H-Indol-6-yl)-3-(trifluoromethyl)phenyl]-6-methyl-3,6-dihydro-2H-1,3,4-oxadiazin-2-one]
31 | 47 | 1 | 1 | CCCNc1ccc(C2=NNC(=O)OC2)cc1C(F)(F)F [Example 69, 5-[4-(Propylamino)-3-(trifluoromethyl)phenyl]-3,6-dihydro-2H-1,3,4-oxadiazin-2-one]
15 | 20 | 1 | 0.5 | O=C1NN=C(c2ccc(NC3CC(O)C3)c(C(F)(F)F)c2)CO1 (mixture of isomers) [Example 206, (cis/trans)-5-[4-{[3-hydroxycyclobutyl]amino}-3-(trifluoromethyl)phenyl]-3,6-dihydro-2H-1,3,4-oxadiazin-2-one]
